Test results: PMC12104674 (Frontiers in Pharmacology, 2025)
Read-outs that look alike come from different tables or passages of the source. Blank lines part the entries; values can stand above or below the compound they belong to.

How the values were obtained:
[1] = set-up: method as in data on file; settings: healthy volunteers, ref data on file, cited from earlier work
[2] = test system: untreated HER2-positive metastatic breast cancer; settings: cited from earlier work
[3] = Safety analysis (TEAEs), Group B; type: in vivo, healthy volunteers
Experimental: (§1) As summarized in Figure 1, the participants were divided into two groups: […] On day 1, all subjects received a single oral dose of 400 mg pyrotinib after breakfast. […] Subjects were instructed to have a light meal the night before the administration of the drug and to fast for 10 h overnight. Safety assessments included adverse events (AEs), physical examinations, vital signs, 12-lead ECGs, and clinical laboratory tests (hematology, serum chemistry, and urinalysis).

[4] = Pyrotinib plasma pharmacokinetics with/without montmorillonite powder (Group A), LC-MS/MS, NCA; type: in vivo, healthy volunteers; settings: for Tmax: median (minimum, maximum); for Vd/F: read-out: Vz/F
Experimental: (§2) On day 1, all subjects received a single oral dose of 400 mg pyrotinib after breakfast. […] Subjects in Group B received a single oral dose of 400 mg pyrotinib and 4 mg loperamide after breakfast on day 9, followed by additional doses of 2 mg loperamide at 2 h and 4 h post-administration.
(§3) Blood samples were collected at baseline (within 30 min prior to drug administration) and at 1, 2, 3, 4, 5, 6, 7, 8, 10, 12, 24, 48, 72, and 96 h following pyrotinib administration on days 1 and 9 to measure the concentration of pyrotinib in the plasma. After completion of the study on day 13, subjects underwent a final examination and were subsequently discharged. A safety follow-up was conducted between days 16 and 19.
(§4) The analysis of plasma samples for pyrotinib was based on a validated and sensitive liquid chromatography-tandem mass spectrometry (LC-MS/MS) method with high specificity. The plasma samples were stored at −70°C and analyzed within a stability period of 176 days. The calibration range for the standard curve was between 1.00 and 500 ng/mL, and the regression equation used linear fitting with a weighting factor of W = 1/X^2 (bioanalysis method validation report, data on file). In each batch of analysis, the number of quality control (QC) samples accounted for more than 5% of the unknown samples in that batch. […] Representative chromatograms of pyrotinib at the LLOQ (lower limit of quantification) and in a plasma sample can be found in the Supplementary Material.
(§5) The individual pharmacokinetic parameters of pyrotinib would be calculated using non-compartmental analysis (NCA) and summarized by groups and combination status with descriptive statistics. To estimate the difference in the least-square means between the combination treatment and pyrotinib alone, a mixed-effects model was used to analyze the natural log-transformed pharmacokinetic parameters of pyrotinib (including AUC0- ∞ , AUC0-t, and Cmax) for each group. The model included treatment as a fixed effect and subject as a random effect. Results were exponentiated to obtain geometric least-squares means, geometric mean ratios, and corresponding 90% confidence intervals (CIs) on the original scale. […] To account for a 10% dropout rate, 18 subjects were planned for each of Groups A and B, resulting in a total of 36 subjects.

[5] = Safety analysis (TEAEs), Group A; type: in vivo, healthy volunteers
Experimental: as §1

[6] = Pyrotinib plasma pharmacokinetics with/without loperamide (Group B), LC-MS/MS, NCA; type: in vivo, healthy volunteers
Experimental: as §2, §3, §4, §5

[7] = test system: CYP3A4; set-up: method as in Marechal et al., 2006; settings: CYP3A4 inhibition; ref Marechal et al., 2006; cited from earlier work
[8] = cited from earlier work; for bioavailability: oral loperamide, significant first-pass effect, ref IMODIUM package insert (2016)
[9] = test system: albumin; settings: of loperamide available in blood; cited from earlier work
[10] = test system: CYP3A4; assay: Calculated R1 / R1,gut for reversible CYP3A4 inhibition by loperamide
[11] = combination with montmorillonite powder/pyrotinib alone
[12] = human, plasma, oral, Group A, pyrotinib alone, 400 mg, day 1, geometric mean (geometric CV)
[13] = with montmorillonite powder 2 h after pyrotinib vs. pyrotinib alone
[14] = combination with loperamide/pyrotinib alone
[15] = with loperamide vs. pyrotinib alone

CL/F ([4]; Group A, 400 mg pyrotinib then 3 g montmorillonite powder 2 h later, day 9, geometric mean (geometric CV)): 315 L/h
CL/F ([4]; Group A, pyrotinib alone, 400 mg, day 1, geometric mean (geometric CV)): 213 L/h
CL/F ([4]; Group A, pyrotinib alone, 400 mg, day 1, geometric mean (geometric CV), listed as Pyrtonib): 213 (40.5) L/h
geometric mean ratio (90% CI), AUC0-t [4, 11]: 0.669 (0.601, 0.745)
geometric mean ratio (90% CI), AUC0-∞ [4, 11]: 0.676 (0.610, 0.749)
geometric mean ratio (90% CI), Cmax [4, 11]: 0.733 (0.670, 0.803)
half-life ([4]; human, plasma, oral): 16.3 h
AUC(0-inf) ([4]; human, plasma, oral, 400 mg, Group A, pyrotinib alone, 400 mg, day 1, geometric mean (geometric CV), read-out: AUC0-∞): 1880 ng·h/mL
Tmax ([4]; human, plasma, oral, 400 mg, Group A, pyrotinib alone, 400 mg, day 1): 5 h
AUC(0-t) ([4]; human, plasma, oral, 400 mg, Group A, pyrotinib alone, mixed-effects model, read-out: Geometric least-square mean AUC0-t): 1830 ng·h/mL
AUC(0-inf) ([4]; human, plasma, oral, 400 mg, Group A, pyrotinib alone, mixed-effects model, read-out: Geometric least-square mean AUC0-∞): 1880 ng·h/mL
AUC(0-inf) ([4]; human, plasma, oral, Group A, 400 mg pyrotinib then 3 g montmorillonite powder 2 h later, day 9, geometric mean (geometric CV), read-out: AUC0-∞): 1270 ng·h/mL
Tmax ([4]; human, plasma, oral, Group A, 400 mg pyrotinib then 3 g montmorillonite powder 2 h later, day 9): 3.51 h
decrease in Tmax ([4]; human, plasma, oral, with montmorillonite powder vs. pyrotinib alone, read-out: time to maximum concentration earlier by): 1.5 h
Cmax [4, 12]: 105 ng/mL
Vd/F [4, 12]: 4580 L
half-life ([4]; human, plasma, oral, Group A, pyrotinib alone, 400 mg, day 1, mean (SD)): 15.5 h
Vd/F ([4]; human, plasma, oral): 7120 L
AUC(0-t) ([4]; human, Group A, pyrotinib alone, single oral 400 mg after breakfast, day 1, plasma pyrotinib, geometric mean (geometric CV), read-out: AUC0-t): 1840 ng·h/mL
reduction in exposure of pyrotinib ([4]; montmorillonite powder at 2-h interval): 33%
decrease in AUC0-t of pyrotinib [4, 13]: 33.1%
decrease in AUC0-∞ of pyrotinib [4, 13]: 32.4%
decrease in Cmax of pyrotinib [4, 13]: 26.7%
change in t1/2 of pyrotinib ([4]; with montmorillonite powder vs. pyrotinib alone): no significant change
CL/F ([6]; Group B, 400 mg pyrotinib + loperamide 4+2+2 mg, day 9, geometric mean (geometric CV)): 160 L/h
CL/F ([6]; Group B, pyrotinib alone, 400 mg, day 1, geometric mean (geometric CV)): 189 L/h
CL/F ([6]; Group B, pyrotinib alone, 400 mg, day 1, geometric mean (geometric CV), listed as Pyrtonib): 189 (26.7) L/h
geometric mean ratio (90% CI), AUC0-t [6, 14]: 1.18 (1.08, 1.28)
geometric mean ratio (90% CI), AUC0-∞ [6, 14]: 1.19 (1.09, 1.29)
geometric mean ratio (90% CI), Cmax [6, 14]: 0.946 (0.867, 1.03)
AUC(0-t) ([6]; human, oral, Group B, 400 mg pyrotinib + 4 mg loperamide, then 2 mg loperamide at 2 and 4 h, day 9, plasma pyrotinib, geometric mean (geometric CV), read-out: AUC0-t): 2430 ng·h/mL
AUC(0-inf) ([6]; human, plasma, oral, 400 mg, Group B, pyrotinib alone, 400 mg, day 1, geometric mean (geometric CV), read-out: AUC0-∞): 2110 ng·h/mL
AUC(0-t) ([6]; human, plasma, oral, 400 mg, Group B, pyrotinib alone, mixed-effects model, read-out: Geometric least-square mean AUC0-t): 2060 ng·h/mL
AUC(0-inf) ([6]; human, plasma, oral, 400 mg, Group B, pyrotinib alone, mixed-effects model, read-out: Geometric least-square mean AUC0-∞): 2110 ng·h/mL
AUC(0-inf) ([6]; human, plasma, oral, Group B, 400 mg pyrotinib + loperamide 4+2+2 mg, day 9, geometric mean (geometric CV), read-out: AUC0-∞): 2500 ng·h/mL
Cmax ([6]; human, plasma, oral, Group B, pyrotinib alone, 400 mg, day 1, geometric mean (geometric CV)): 124 ng/mL
Vd/F ([6]; human, plasma, oral, Group B, pyrotinib alone, 400 mg, day 1, geometric mean (geometric CV), read-out: Vz/F): 4520 L
half-life ([6]; human, plasma, oral, Group B, pyrotinib alone, 400 mg, day 1, mean (SD)): 17.3 h
Tmax ([6]; human, plasma, oral, Group B, pyrotinib alone, 400 mg, day 1, median (minimum, maximum)): 4.98 h
AUC(0-t) ([6]; human, Group B, pyrotinib alone, single oral 400 mg after breakfast, day 1, plasma pyrotinib, geometric mean (geometric CV), read-out: AUC0-t): 2060 ng·h/mL
change in median Tmax of pyrotinib [6, 15]: no significant change
decrease in Cmax of pyrotinib [6, 15]: approximately 5.4%
increase in AUC0-t of pyrotinib [6, 15]: approximately 18%
increase in AUC0-∞ of pyrotinib [6, 15]: ~19%
Compound: CCOc1cc2ncc(C#N)c(Nc3ccc(OCc4ccccn4)c(Cl)c3)c2cc1NC(=O)/C=C/[C@H]1CCCN1C [Pyrotinib]
time to peak concentration ([1]; oral 400 mg pyrotinib): approximately 5 h
elimination half-life [1]: approximately 18 h
progression-free survival (PFS) ([2]; pyrotinib combined with trastuzumab and docetaxel, ref Ma et al., 2023): 24.3 months
incidence of diarrhea grade 3 or higher ([2]; pyrotinib group (138/297), ref Ma et al., 2023): 46%
incidence of diarrhea ([2]; pyrotinib group (293/297), ref Ma et al., 2023): 99%
hazard ratio (PFS) ([2]; pyrotinib vs. placebo, each with trastuzumab and docetaxel, ref Ma et al., 2023): 0.41
duration of diarrhea ([2]; usually, ref Ma et al., 2023): 2 to 3 days
incidence of hypertriglyceridemia ([3]; Group B): 22.2%
incidence of hyperuricemia ([3]; Group B): 11.1%
incidence of oral ulcer ([3]; Group B): 11.1%
incidence of rash ([3]; Group B): 11.1%
serious adverse events ([3]; Group B): No serious adverse events
number of treatment-emergent adverse events (TEAEs) ([3]; Group B (N = 18)): 18
subjects who experienced TEAEs ([3]; Group B (N = 18), pyrotinib 400 mg day 1 and pyrotinib + loperamide day 9): 12 subjects
incidence of each other TEAE ([3]; Group B, nausea, abdominal distension, PR interval prolongation on ECG, increased heart rate, increased total bile acid, headache, dizziness (each)): 5.6%
incidence of hypertriglyceridemia ([5]; Group A): 11.1%
serious adverse events ([5]; Group A): No serious adverse events
number of treatment-emergent adverse events (TEAEs) ([5]; Group A (N = 18)): 11
subjects who experienced TEAEs ([5]; Group A (N = 18), pyrotinib 400 mg day 1 and pyrotinib + montmorillonite powder day 9): eight
severity of TEAEs ([5]; Group A, all TEAEs): mild (Grade 1)
incidence of each other TEAE ([5]; Group A, hypercholesterolemia, nausea, abdominal distension, ALT elevation, AST elevation, bradycardia, elevated blood bilirubin, upper respiratory tract infection, orthostatic hypotension (each)): 5.6%

Compound: CN(C)C(=O)C(CCN1CCC(O)(c2ccc(Cl)cc2)CC1)(c1ccccc1)c1ccccc1 [loperamide]
bioavailability [8]: 0.3%
bioavailability ([8]; listed as Loperamide): about 0.3%
median PFS by antidiarrheal used in diarrhea management ([2]; ad hoc analysis, ref data on file): 19.5 months
fraction bound to albumin [9]: 95%
calculated R1 for reversible inhibition ([10]; CYP3A4): less than 1.0001
calculated R1,gut ([10]; based on molecular weight of 477 Dalton, guidance cut off 11): 1,342.7
